{
  "source": "patent US11414374B2",
  "about": "“Crystalline forms of vilanterol trifenatate and processes for their preparation” (Hovione Scientia Limited, priority 2017, dated 2022)",
  "assay_type_in_all_cases": "physicochemical",
  "key": {"[1]": {"test": "DSC - differential scanning calorimetry", "settings": "for DSC (onset) endo. degradation: endothermic event: degradation; for DSC (onset) endo. solvent loss: endothermic event: solvent loss; for DSC (onset) endo. melting: endothermic event: melting", "description": "The analysis was carried out using a DSC Q200 TA instruments equipped with a refrigerator cooling system (RCS40) and autosampler. The sample was weighed in an aluminum hermetic pan with pinhole. The analysis was performed heating the sample from 25° C. to 350° C. at 10° C./min."}, "[2]": {"test": "TGA / TGA-EGA thermogravimetric analysis with evolved gas analysis", "settings": "for EGA: evolved solvent identified; for TGA overall weight loss: overall loss of the named solvent(s)", "description": "The analysis was carried out using the Mettler Toledo TGA/DSC1. The sample was weighed in an aluminum pan hermetically sealed with an aluminum pierced cover. The analysis was performed heating the sample from 25° C. to 320° C. at 10° C./min. TGA-FTIR coupled with Thermo Nicoled is 10 spectometer. The analysis was carried out using the mettler toledo TGA/DSC1. The sample was weighed in an aluminum pan hermetically sealed with an aluminum pierced cover. The analysis was performed heating the sample from 25° C. to 320° C. at 10° C./min. The evolved gas is compared with ft-ir spectra database for identification."}, "[3]": {"test": "Stability test (exposed sample 16 h), form by XRPD", "settings": "resulting form"}, "[4]": {"test": "Stability test (sealed vial 18 h), form by XRPD", "settings": "resulting form"}},
  "data": [
    {"smiles": "OCc1cc([C@@H](O)CNCCCCCCOCCOCc2c(Cl)cccc2Cl)ccc1O", "note": "[form V, vilanterol trifenatate]", "values": [
      {"measurement": "DSC (onset) endo. Form 1 melting", "setting": "[1]; endothermic event: Form 1 melting, listed as Form 5", "result": "endo. 134 °C Form 1"},
      {"measurement": "DSC (onset) endo. degradation", "setting": "[1]; listed as Form 5", "result": "endo. 188 °C degradation"},
      {"measurement": "DSC (onset) endo. solvent loss", "setting": "[1]; listed as Form 5", "result": "endo. 55-100 °C solvent loss"},
      {"measurement": "EGA", "setting": "[2]; listed as Form 5", "result": "Methylcyclohexane"},
      {"measurement": "Stability test (exposed sample 16 h)", "setting": "[3]; listed as Form 5", "result": "Form 2"},
      {"measurement": "Stability test (sealed vial 18 h)", "setting": "[4]; listed as Form 5", "result": "Strong crystanllinity"}
    ]},
    {"smiles": "OCc1cc([C@@H](O)CNCCCCCCOCCOCc2c(Cl)cccc2Cl)ccc1O", "note": "[form XIII, vilanterol trifenatate]", "values": [
      {"measurement": "DSC (onset) endo. degradation", "setting": "[1]; listed as Form 13", "result": "endo. 189 °C"},
      {"measurement": "DSC (onset) endo. melting", "setting": "[1]; listed as Form 13", "result": "endo. 105 °C"},
      {"measurement": "DSC (onset) exo. recrystallization", "setting": "[1]; exothermic event: recrystallization", "result": "exo. 93 °C"},
      {"measurement": "TGA overall weight loss", "setting": "[2]; listed as Form 13", "result": "One loss of 34% w/w"},
      {"measurement": "Stability test (exposed sample 16 h)", "setting": "[3]; listed as Form 13", "result": "Form 12"},
      {"measurement": "Stability test (sealed vial 18 h)", "setting": "[4]; listed as Form 13", "result": "Form 12 (almost"}
    ]},
    {"smiles": "OCc1cc([C@@H](O)CNCCCCCCOCCOCc2c(Cl)cccc2Cl)ccc1O", "note": "[form IV, vilanterol trifenatate]", "values": [
      {"measurement": "DSC (onset) endo. degradation", "setting": "[1]; listed as Form 4", "result": "endo. 189 °C degradation"},
      {"measurement": "DSC (onset) endo. melting", "setting": "[1]; listed as Form 4", "result": "endo. 76 °C melting"},
      {"measurement": "EGA", "setting": "[2]; listed as Form 4", "result": "Cyclohexane"},
      {"measurement": "TGA overall weight loss", "setting": "[2]; listed as Form 4", "result": "overall loss of 40% w/w/"},
      {"measurement": "Stability test (exposed sample 16 h)", "setting": "[3]; listed as Form 4", "result": "Form 2"},
      {"measurement": "Stability test (sealed vial 18 h)", "setting": "[4]; listed as Form 4", "result": "Form 12"}
    ]},
    {"smiles": "OCc1cc([C@@H](O)CNCCCCCCOCCOCc2c(Cl)cccc2Cl)ccc1O", "note": "[form XIV, vilanterol trifenatate]", "values": [
      {"measurement": "DSC (onset) endo. solvent loss + melting", "setting": "[1]; endothermic event: solvent loss + melting (Form 6: + Form 2 melting; Form 14: + Form 3 melting), listed as Form 14", "result": "endo. 80 °C solvent"},
      {"measurement": "DSC (onset) endo. solvent loss", "setting": "[1]; listed as Form 14", "result": "endo. 58 °C solvent loss"},
      {"measurement": "EGA", "setting": "[2]; listed as Form 14", "result": "Methylcyclohexane"},
      {"measurement": "TGA overall weight loss", "setting": "[2]; listed as Form 14", "result": "loss of 26% w/w"},
      {"measurement": "Stability test (exposed sample 16 h)", "setting": "[3]; listed as Form 14", "result": "Form 3"},
      {"measurement": "Stability test (sealed vial 18 h)", "setting": "[4]; listed as Form 14", "result": "Form 3 (almost"}
    ]}
  ]
}
